Measurements reported in patent publication US20050255118A1, “Methods and composition for treating tumors and metastatic disease” (priority 2004, published 2005).
Read-outs that look alike come from different tables or passages of the source.

Experiments:
[1] = system: human MOLT-4 acute lymphoblastic leukemia xenografts; experiment: Growth of subcutaneously-implanted human MOLT-4 xenografts in SCID mice; type: in vivo, female SCID mice; conditions: for Effect on growth of SC-implanted MOLT-4 xenografts (primary tumor): treatment after establishment of tumor
Procedure: Mice were fed sterilizable rodent diet (Harlan-Teklad TD8656). Cages were changed twice weekly.
Thirty-to-forty milligram fragments of MOLT-4 human leukemia were implanted in mice near the right auxiliary area using a 12-gauge trocar needle and allowed to grow. The day of tumor fragment implantation was Day 0 of the experiment. Tumors were allowed to reach 75-144 mg in weight (75-144 mm3 in size) before the start of the treatments. A sufficient number of mice were implanted so that tumors in a weight range as narrow as possible were selected for the trial on the day of treatment initiation (Day 14 after tumor implantation). Those animals selected with tumors in the proper size range were randomized into treatment groups. The mean tumor weights on the first day of treatment were ranging from 84 or 96 mg; median tumor weights were 75 or 88 mg on Day 14.
Natalizumab (a 20-mg/mL solution, Gensia Sicor Pharmaceuticals Inc., Lot Nos. F23014 and G23004) and a diluent (Placebo for Tysabri®, Gensia Sicor Pharmaceuticals Inc., Lot No. F85002) were received from Biogen Idec Inc. and were stored at +2-8° C. upon receipt. Vials with a 0.97-mg/mL solution of human immunoglobulin (IgG4) were supplied by Sigma-Aldrich (St. Louis, Mo., Lot No. 122K9159) and were stored at −84° C. upon receipt. A clinical formulation of Taxol® (placlitaxel) (6.0 mg/mL in 50% cremophor-EL/50% ethanol, Bristol-Myers Squibb Company, Princeton, N.J.; Lot No. 2L57296) was purchased and refrigerated upon receipt. Saline (Saline Solution 0.9%, for animal use only) was purchased from Phoenix Pharmaceutical, Inc. (St. Joseph, Mo., Lot Nos. 262053F, 206205F, 208281F) and stored at room temperature. A new bottle of saline was used on each day of formulation.
On Day 14, a 20-mg/mL solution of natalizumab was diluted with Placebo for Tysabri® to 1.0 mg/mL. On subsequent injection days, a 0.5-mg/mL solution of natalizumab was formulated by diluting a 20-mg/mL stock solution with Placebo for Tysabri®. Care was taken not to shake the vials with natalizumab; the vials were inverted to mix. A new vial of natalizumab and Placebo for Tysabri® were used on each day of formulation. On Day 14, a supplied 0.97-mg/mL stock solution of IgG4 was thawed and injected into mice. On subsequent injection days, a 0.5-mg/mL solution of IgG4 was prepared by diluting a 0.97-mg/mL stock solution with Saline Solution 0.9%. A new vial with IgG4 was used on each day of formulation. An aliquot of a commercially formulated 6-mg/mL solution of Taxol® in 50% cremophor-EL/50% ethanol was diluted on each day of injection with Saline Solution 0.9% to make a 1.5-mg/mL solution in 12.5% cremophor-EL/12.5% ethanol/75% saline. All dosing solutions were injected within 2 to 3 hours of formulation.
Primary tumors of animals in Groups 5 and 6 were surgically excised on Day 28, one day after the median tumor weight in Group S reached 466 mg. Administration of anesthesia and surgery/post-surgery recovery procedures were conducted following approved standard laboratory methods. Briefly, each animal was anesthetized and the incision site was prepared with an antiseptic solution. An incision along the periphery of one side of the tumor (no more than 3-4 mm longer than the diameter of the tumor) was made, the skin was reflected and the tumor was everted through the incision. Tumor was dissected away from the skin and muscle. The incision was closed with a 4.0-mm wound clip. Each excised tumor was cut in half, with one half of the tumor frozen in O.C.T. compound and the second half of the tumor preserved in 10% buffered formalin. The site of the resection was monitored for tumor re-growth twice a week and when a new solid tumor was formed, its dimensions were recorded.
Animals No. 1-10 in Groups 1-4 were euthanized on Day 47 after tumor implantation (16 May 2003); Animals No. 11-20 in Groups 1-4 were euthanized on Day 48 (17 May 2003). […]

[2] = system: human acute lymphoblastic leukemia xenografts; experiment: Necropsy and histopathologic evaluation of xenograft-bearing SCID mice; design: species or system female SCID mice; conditions: mouse, in vivo
Procedure: Animals No. 1-10 in Groups 1-4 were euthanized on Day 47 after tumor implantation (16 May 2003); Animals No. 11-20 in Groups 1-4 were euthanized on Day 48 (17 May 2003). All surviving animals in Groups 5 and 6 (except for Animal No. 12 in Group 5 and Animal No. 8 in Group 6, for explanations see below) were euthanized on Day 80 after tumor implantation […]. Animal No. 12 in Group 5 was sacrificed on Day 73 due to excessive tumor weight (>4,000 mg). Animal No. 8 in Group 6 was sacrificed on Day 73 due to tumor ulceration. Five animals in Group 7 were euthanized on Days 14, 21, 28, 35, and ten animals were euthanized on Day 38. Carcasses of all animals alive on Days 47, 48, and 80 were submitted to the Safety Assessment Department of Southern Research Institute for necropsy followed by complete histopathological evaluation. Animals in Group 7 were excluded from necropsy and complete histopathological evaluation. For the animals in Groups 1-6, tumor implantation (subcutaneous) took place on Day 0. Treatment was initiated on Day 14, and treatment was terminated on Day 45. Primary tumor excision occurred on Day 28 post-implantation in Groups 5 and 6. The animals were sacrificed on Day 80. Animals in the non-excision group were sacrificed at days 47-48.
Each tumor weighing more than 100 mg was cut in half and one half of the each tumor was frozen in O.C.T. compound using a dry ice/ethanol slush, and stored at −84° C. Tumors weighing less than 100 mg (tumors of Animals No. 1, 3, 7, 9, 11, 12, 14-18, and 20 in Group 4) were frozen in O.C.T. compound in toto. Tumor of Animals No. 2, 4, 5, 6, 8, 13, and 19 in Group 4, which weighed less than 100 mg, were preserved in 10% buffered formalin in toto. After the completion of the experiment all tumor samples frozen in O.C.T. compound (a total of 145 tumor samples) were shipped to Sierra Biomedical, Division of Charles River Laboratories, to be examined by immunohistochemistry to verify that MOLT-4 was expressing VLA-4 in vivo and thus was a valid tumor model for this study. […]

[3] = mouse, in vivo
Description: (§4) In-life experimental work commenced on Day 0 and was terminated on Day 80. Five-to-six-weeks-old, female SCID mice were purchased from Taconic Farms, Inc. (Germantown, N.Y.) and acclimated in the laboratories one week prior to experimentation. The animals were housed in a pathogen-free barrier facility in micro-isolator cages, with five animals per cage in a 12-hour light/dark cycle. The animals received filtered Birmingham municipal water and sterile rodent food ad libitum. Mice were fed sterilizable rodent diet (Harlan-Teklad TD8656). Cages were changed twice weekly. The animals were observed daily and clinical signs were noted.
(§5) Animals were randomly divided into six groups of 20 animals each and one group of 30 animals. Two groups (Groups 1 and 5) were treated with Saline Solution 0.9% (saline). Animals in Groups 2, 6, and 7 were treated with natalizumab. Animals in Group 3 were treated with IgG4 (isotype control). Animals in Group 4 were treated with Taxol® (positive control). Treatments with saline, natalizumab, and IgG4 (Groups 1, 2, 3, 5, and 6) were administered IP on Days 14, 17, 21, 24, 28, 31, 35, 38, 42, and 45 (Q3D×2 for five weeks, Friday-Monday schedule). Treatment with natalizumab in Group 7 (a group of 30 mice) was administered on Days 14, 17, 21, 24, 28, 31, 35, and 38 (Q3D×2 for four weeks). On Day 14 natalizumab was administered at a dosage of 10 mg/kg, followed by further treatments with a dosage of 5 mg/kg/dose. […]
(§6) The animals were weighed and the subcutaneous (SC) tumors were measured on the days when treatments were administered starting on Day 14 with an exception of two measurements which were done one day before the injection (on Days 24 and 41). […]
(§7) The number of non-specific deaths, number of partial and complete tumor regressions, number of tumor-free survivors, and the individual animal's time to reach the evaluation size (time to reach four tumor mass doublings) were determined. […] Mean body weights and standard deviations were calculated for each group on each day of data collection (values are presented in Tables 8-9 through 8-15).

AS283 cell line = experiment: 3H-thymidine incorporation (tritiated thymidine uptake) proliferation assay, AS283; type: cell-based; conditions: 1, 2, 3, 4 and 5 days of exposure, eight concentrations (0.001-100 mg/mL)
Procedure: (§1) In order to assess the potential of natalizumab to induce or inhibit proliferation of transformed cells and clonal expansion possibly leading to neoplasia, experiments were performed to determine the ability of natalizumab to stimulate growth of malignant cells expressing the receptor in vitro, and studies were conducted in animal tumor models.
(§2) The evaluation of positive or negative effects on proliferation of the tumor cell lines was performed using 3H-thymidine incorporation assays. Evaluation of the inhibition or potentiation of human tumor cell growth and/or metastasis was determined using a tumor xenograft nude/SCID mouse model. Thirty-two tumor cell lines were screened. Of the thirty-two tumor cell lines, twelve were colorectal carcinoma, colorectal adenocarcinoma, colon adenocarcinoma, or colon carcinoma cell lines; seven were melanomas or amelanotic melanomas; six were urinary bladder transitional cell carcinomas or urinary bladder carcinomas; three were leukemias; two were lymphomas; and two were prostate carcinomas.
(§3) An adhesion assay for VCAM-1 binding was also performed. Seven of the eleven cell lines evaluated were positive. […] AS283, HT-29, MOLT-4, and UM-UC-3 cell lines were treated with Tysabri® (natalizumab). Tritiated thymidine uptake was measured.

HT-29 cell line = experiment: 3H-thymidine incorporation (tritiated thymidine uptake) proliferation assay, HT-29; type: cell-based; conditions: 1, 2, 3, 4 and 5 days of exposure, eight concentrations (0.001-100 mg/mL)
Procedure: as §1, §2, §3

MOLT-4 cell line = experiment: 3H-thymidine incorporation (tritiated thymidine uptake) proliferation assay, MOLT-4; type: cell-based, human; conditions: 1, 2, 3, 4 and 5 days of exposure, eight concentrations (0.001-100 mg/mL)
Procedure: as §1, §2, §3

UM-UC-3 cell line = experiment: 3H-thymidine incorporation (tritiated thymidine uptake) proliferation assay, UM-UC-3; type: cell-based; conditions: 1, 2, 3, 4 and 5 days of exposure, eight concentrations (0.001-100 mg/mL)
Procedure: as §1, §2, §3

[4] = system: tumor cell lines (nine evaluated); experiment: Preliminary cell proliferation assay on nine tumor cell lines; type: cell-based; conditions: all nine of the nine cell lines evaluated
Procedure: as §2, §3

[5] = system: human MOLT-4 acute lymphoblastic leukemia xenografts; experiment: Growth of subcutaneously-implanted human MOLT-4 xenografts in SCID mice; type: in vivo, female SCID mice; conditions: treatment initiated Day -7
[6] = Tolerability (deaths, body weight) in MOLT-4 xenograft-bearing SCID mice
Description: as §4, §5, §6, §7

Which “Measurable tumors that doubled their mass once over the course of the experiment” value ([1]; no excision (Group 4)) does the source give for CC(=O)O[C@H]1C(=O)[C@@]2(C)[C@H]([C@H](OC(=O)c3ccccc3)[C@]3(O)C[C@H](OC(=O)[C@H](O)[C@@H](NC(=O)c4ccccc4)c4ccccc4)C(C)=C1C3(C)C)[C@]1(OC(C)=O)CO[C@@H]1C[C@@H]2O [Taxol, placlitaxel, reference compound] here?
Its value is “three out of eight”.

And the “Animals with no measurable tumor at termination of the experiment” value ([1]; no excision, 15 mg/kg/dose IV Q1Dx5 from Day 14)?
Its value is “Twelve out of twenty”.

And the “Effect on growth of SC-implanted MOLT-4 xenografts (primary tumor)” value ([1]; no excision)?
Its value is “very effective in the inhibition”.

And the “Gross and microscopic lesions, relation to treatment” value [2]?
The value was “spontaneous or incidental and unrelated”.

What about the Tolerability of administration [3] of the same compound?
The Tolerability of administration was “well tolerated without deaths or sustained body weight loss”.

For “natalizumab: a humanized antibody against VLA-4 as described in U.S. Pat. Nos. 5,840,299 and 6,033,665”, which “Tritiated thymidine uptake: cytotoxic or proliferative effect” value (shortened to “Tritiated thymidine uptake”) (AS283 cell line) is on record?
The value was “no evidence of a cytotoxic or proliferative effect”.

What about the “Tritiated thymidine uptake” value (HT-29 cell line) of the same compound?
The value was “no evidence of a cytotoxic or proliferative effect”.

What about the “Tritiated thymidine uptake” value (MOLT-4 cell line) of the same compound?
The value was “no evidence of a cytotoxic or proliferative effect”.

And the “Tritiated thymidine uptake” value (UM-UC-3 cell line)?
The value was “no evidence of a cytotoxic or proliferative effect”.

What about the “Preliminary cell proliferation assay: cytotoxic or proliferative effect” value [4] of the same compound?
The value was “no cytotoxic or proliferative effect”.

And the Median tumor weight ([1]; Day 47, treatment started Day 14 on established tumor, no excision (Groups 2-4))?
The Median tumor weight was 1240 mg.

What about the “Median tumor weight (re-grown tumor)” value ([1]; Day 80, primary tumor excised Day 28 (Group 6)) of the same compound?
The value was 1006 mg.

What about the “Animals staying tumor-free on day of study termination” value ([1]; Group 6, Day 80) of the same compound?
The value was “two”.

What about the “Animals whose tumor re-grew at the site of the primary tumor following excision” value ([1]; Group 6, excision Day 28) of the same compound?
Its value is “seventeen out of nineteen”.

What about the “Effect on re-growth of tumor at the site of excision of the primary tumor” value ([1]; Group 6 vs Group 5, excision Day 28) of the same compound?
The value was “re-grew at a slower rate”.

What about the “Tumors growing / animals with tumor at termination of the experiment” value ([1]; no excision (Groups 2 and 3)) of the same compound?
Its value is “All twenty tumors grew”.

What about the “Time for median tumor to reach four tumor mass doublings” value ([1]; primary tumor excised Day 28 (Group 6), not reached) of the same compound?
The value was greater than 66.0 days.

And the “Effect on growth of SC-implanted MOLT-4 xenografts (primary tumor)” value ([1]; no excision)?
Its value is “not inhibited”.

And the “Time for median tumor to reach four tumor mass doublings” value ([1]; treatment started Day 14 on established tumor, no excision (Groups 2-4))?
The value was 33.5 days.

And the “Exacerbation of growth or metastasis of the xenografts (histopathology)” value [2]?
The value was “no evidence of exacerbation of growth or metastasis”.

And the “Gross and microscopic lesions, relation to treatment” value [2]?
Its value is “spontaneous or incidental and unrelated”.

What about the “Effect on tumor growth, treatment initiated prior to tumor implantation” value [5] of the same compound?
Its value is “significant decrease in tumor growth”.

And the “Effect on animal health (body weights over the treatment period)” value ([6]; mouse, in vivo)?
Its value is “did not adversely affect animal health”.

And the Tolerability of administration ([6]; non-excision groups, natalizumab and IgG4 IP Days 14-45, Taxol IV Q1Dx5)?
Its Tolerability of administration is “well tolerated without deaths”.
